Assays:
[1] = test system: plasma cytokines; experiment: Plasma cytokine levels by ELISA (LINCOplex), 1st experiment; type: in vivo, athymic nude (nu/nu) mice; conditions: for IL-10: limit of detection 24.6
Protocol: Cytokine levels in EDTA plasma from the mice in the 1st experiment were determined by ELISA assay at Alta Analytical Laboratories (San Diego, Calif.) using a LINCOplex Kit (Linco Research). Tryptophan (Trp) and kynurenine (Kyn) concentrations were measured from EDTA plasma samples by high pressure liquid chromatography (HPLC) using 3-nitro-L-tyrosine as the internal standard (Widner et al., 1997). To estimate IDO activity, the kynurenine to tryptophan ratio (Kyn/Trp) was calculated and expressed as μmol kynurenine/mmol tryptophan (Wirleitner, 2003). The values from five mice in the 1st experiment are not included in the summary statistics given in Table 1 for the following reasons. One mouse from each of the four treatment groups was used to test the effects of mega dosing, i.e., with (1:4 mol:mol) calcium pterin at 100 mg/kg/day after Day 60 of treatment, and are excluded. Also excluded was one mouse from the (1:4 mol:mol) calcium pterin (7 mg/kg/day) group which expired suddenly a few days before blood was collected. Cytokine measurements <3.2 pg/ml are reported as n.d. (not detectable) because the standard curves used in the ELISA assays were not calibrated below that level.
Cytokine levels in EDTA plasma from the mice in the 1st experiment were determined by ELISA assay at Alta Analytical Laboratories (San Diego, Calif.) using a LINCOplex Kit (Linco Research).
Cytokine levels in EDTA plasma from the mice in the 2nd experiment were measured at the UCSD Core Laboratory (San Diego, Calif.) using a multiplex assay kit for IL-1β, IL-2, IL-4, IL-5, IL-10, IL-12, IFN-γ, TNF-α and single ELISA kits for IL-6 and TGF-β1 by R&D Systems. EDTA plasma samples from two of the three ungavaged controls were lost due to handling error. For both the 1st and 2nd experiments, those measured cytokine values falling below the limits of detection were set to the higher assay limit for the purposes of the subsequent statistical analyses, and recorded as n.d. (not detectable) in Tables 1 through 3.

[2] = test system: MDA-MB-231 human breast tumor xenographs; experiment: Antitumor efficacy in nude mice with MDA-MB-231 xenographs, 1st experiment; type: in vivo, athymic nude (nu/nu) mice; conditions: for Day 60 Rel Tum Vol: mean ± SEM
Protocol: The aims of the 1st experiment were to determine a dose-response curve for the (1:4 mol:mol) calcium pterin suspension, to compare the antitumor activity of this suspension to pterin alone (pterin control), and to test the effect of CaPterin mega-dosing at 100 mg/kg/day. Antitumor efficacy was evaluated in nude mice with MDA-MB-231 human tumor xenographs by Perry Scientific (San Diego, Calif.). In the 1st experiment, twenty-three athymic nude (nu/nu) female mice, ages 3-4 weeks, were purchased from Harlan Sprague Dawley, Inc. (Indianapolis, Ind.). 5×10^6 MDA-MB-231 cancer cells were injected subcutaneously into the right flank of each mouse. When tumors reached 3-5 mm in size, twenty mice were divided into four treatment/control groups of five mice each. The four treatment groups were: (1:4 mol:mol) calcium pterin (7 mg/kg/day); pterin (21 mg/kg/day); (1:4 mol:mol) calcium pterin (21 mg/kg/day); and sterile water control. Two mice with outlying tumor sizes or non-tumor takes were excluded shortly after treatment began: one from the pterin group and one from the control group. […] Only one outlier persisted >4 days, for 14 days. Also excluded from the metabolic analysis in the 1st experiment was one mouse from each of the four experimental groups mega-dosed by oral gavage with 100 mg/kg/day CaPterin for tip to 31 days to test for toxicity. All the other mice in the 1st experiment persisted ≧60 days without complications.
The control mice in the 1st experiment were treated with sterile water while the control mice in the 2nd experiment were untreated to evaluate the effect of mouse handling and gavaging upon tumor growth. Daily dosing was for 7 days per week. Animals were restrained but not anesthetized for oral dosing. Tumors were measured twice weekly with calipers and body weights taken twice weekly on the day of tumor measurements. Blood was collected from all animals via cardiac puncture at termination (after 70 to 98 days of treatment) and processed to EDTA plasma for analysis. Tumor size measurements for the control group in the 2nd experiment on days 4 and 7 were missed due to a technical oversight.
The MDA-MB-231 human breast tumor cell lines were supplied by SRI International (Menlo Park, Calif.) and propagated using standard in vitro cell expansion methods. Briefly, cells were grown in L-15 media from Gibco (Cat. No. 11415-064) supplemented with 2 mM L-Glutamine and 10% Fetal Bovine Serum (FBS). The cells were cultured in an incubator with 5% CO2, 37.5° C., and 80% humidity. Cells were harvested with 0.25% (w/v) Trypsin-0.03% (w/v) EDTA solution. Cells were prepared for injection by standard methods to appropriate concentrations. Animals were temporarily restrained but not anesthetized for the inoculation of the tumor cells. Animals were subcutaneously injected with the tumor cells in a 100-200 μl volume.
Each animal was individually tracked for tumor growth by external caliper measurements of protruding tumor. Primary tumor sizes were measured using calipers and an approximate tumor volume calculated using the formula 1/2 (a×b^2), where b was the smaller of two perpendicular diameters.
For each group, the mean and standard error of the mean (SEM) of the ratio V/Vo, Relative Tumor Volume (RTV), were plotted as a function of treatment time after inoculation. V0 was the tumor volume at Day 0, when treatment began.

[3] = Table 4, 7 mg/kg/d, limit of detection 3.2
[4] = Table 4, 21 mg/kg/d, limit of detection 3.2

Substance: (1:4 mol:mol) calcium pterin [CaPterin]
- IL10 ([1]; Table 1, 7 mg/kg/day, plasma): 41.9 ± 22.7 pg/mL
- IL-6 ([1]; Table 1, 7 mg/kg/day, plasma): 114.7 ± 43.2 pg/mL
- IL-12 ([1]; Table 1, 7 mg/kg/day, plasma): 7.7 ± 4.4 pg/mL
- TNF-α ([1]; Table 1, 7 mg/kg/day, plasma): 9.8 ± 1.5 pg/mL
- IL-1b ([1]; Table 1, 7 mg/kg/day, plasma at sacrifice, n.d. = <3.2 pg/ml): 5.2 ± 2.0 pg/mL
- IFN-γ ([1]; Table 1, 7 mg/kg/day, plasma, n.d. = <3.2 pg/ml): 4.7 ± 0.6 pg/mL
- IL10 ([1]; Table 1, 21 mg/kg/day, plasma): 50.8 ± 32.3 pg/mL
- IL-6 ([1]; Table 1, 21 mg/kg/day, plasma): 121.7 ± 78.1 pg/mL
- IL-12 ([1]; Table 1, 21 mg/kg/day, plasma): 243.8 ± 237.8 pg/mL
- TNF-α ([1]; Table 1, 21 mg/kg/day, plasma): 8.5 ± 1.6 pg/mL
- IL-1b ([1]; Table 1, 21 mg/kg/day, plasma at sacrifice, n.d. = <3.2 pg/ml): 3.4 ± 0.2 pg/mL
- IFN-γ [1, 3]: 4.7 ± .8 pg/mL
- IL-12 [1, 3]: 7.7 ± 4.4 pg/mL
- TNF-α [1, 3]: 9.8 ± 1.5 pg/mL
- IL-1β ([1]; Table 4, 7 mg/kg/d, limit of detection 4.1): 5.8 ± 1.7 pg/mL
- IL-10 ([1]; Table 4, 7 mg/kg/d): 49.0 ± 17.0 pg/mL
- IL-6 ([1]; Table 4, 7 mg/kg/d, plasma at sacrifice, limit of detection 3.9): 114.7 ± 43.2 pg/mL
- IL-12 [1, 4]: 243.8 ± 237.8 pg/mL
- TNF-α [1, 4]: 8.5 ± 1.6 pg/mL
- IL-10 ([1]; Table 4, 21 mg/kg/d): 61.5 ± 27.3 pg/mL
- IL-6 ([1]; Table 4, 21 mg/kg/d, plasma at sacrifice, limit of detection 3.9): 121.7 ± 78.1 pg/mL
- plasma IFN-γ response to dosage (ACIP model) ([1]; stepwise regression): decrease
- plasma IL-6 response to dosage (ACIP model) ([1]; stepwise regression): decrease
- plasma IL-10 response to dosage (ACIP model) ([1]; stepwise regression): increase
- antitumor activity (tumor growth vs control) ([2]; 7 mg/kg/day): non-significant
- Day 60 Rel Tum Vol ([2]; 7 mg/kg/day oral): 24.0 ± 9.0
- antitumor activity (tumor growth vs control) ([2]; 21 mg/kg/day): significantly inhibits
- Day 60 Rel Tum Vol ([2]; 21 mg/kg/day oral): 7.9 ± 1.3
- T/C ratio (mean treatment tumor volume to mean control tumor volume) ([2]; 21 mg/kg/day, after 60 days): 41%
- Spearman rank order correlation rs, Day 60 Relative Tumor Volume versus dose ([2]; n=14, p=0.005): 0.70

Reference: patent US20120251495A1, “PTERIN BASED THERAPIES FOR INFLAMMATORY CONDITIONS” (priority 2008, published 2012)
